One assay concerns the target HDAC1 (Homo sapiens, UniProt Q13547). As to the kind of experiment: HDAC1 inhibitory assay (Boc-Lys(Ac)-AMC substrate). The note with it: n ≥ 3, SD <20% of the mean; read-out: IC50 against HDAC1. Type of assay: biochemical. As for the experimental part: The enzyme inhibitory assay was conducted by Shanghai ChemPartner Corporation (Shanghai, China). […] Then the lysine developer was added to terminate the reaction, and the samples were further incubated at 37 °C for 30 min. […] Three independent experiments with triplicate were carried out.

For assay [1], the system named is MDA-MB-231 cells. As to the kind of experiment: Cell cycle arrest analysis (PI, flow cytometry). The settings on record: for cell cycle arrest: MDA-MB-231.
Protocol: After 24 h of cell cycle treatment, the cells were washed three times with PBS, and the cell suspension was collected, centrifuged again, and then added to an ethanol fixative (70%) and placed in a refrigerator for overnight storage. After washing, the dye was added and stained with PI containing RNaseA solution for 30 min at 37 °C, and then analyzed by FACS.
For the next assay, the system named is acetyl-histone H4. Briefly: Western blot analysis, acetyl-histone H4. The class given is cell-based, human. The settings on record: MDA-MB-231, 1, 2 and 5 µM, 48 h. The procedure: (§1) Based on the aforementioned results, western blot analysis was further performed by immunoblotting assay (β-actin as the negative control).
(§2) Briefly, MDA-MB-231 cells were lysed in lysis buffer (50 mM Tris-HCl pH 8.0, 5 mM EDTA, 100 mM NaCl, 0.5% NP-40, 1 mM PMSF) and then centrifuged for 10 min at 12,000 r, and the insoluble debris was discarded. Cell lysates were further analyzed with SDS-PAGE and western blotting with indicated antibodies. After treatment with 13a and 13c for indicated times, cells were harvested with RIPA buffer (150 mM sodium chloride, 1% Triton X-100, 0.5% sodium deoxycholate, 0.1% SDS, 50 mM Tris and cocktails of protease and phosphatase inhibitors) for 10 min at room temperature and boiled for another 10 min. Equal amounts of total proteins (35 μg) underwent 15% SDS-PAGE and were electroblotted onto the polyvinylidene difluoride (PVDF) membrane. The membrane was blocked with 5% (w/v) fat-free dry milk in PBS-Tween 20 (PBST; 0.05%) for 1 h and incubated with primary antibody (1:1000 in PBST) at 4 °C overnight. […] The relative quantity of proteins was analyzed via the Image J software (NIH, Bethesda, MD, USA).
(§3) (B) Quantitative analysis. The relative levels of Ac-H3 and Ac-H4 used to control β-actin were determined by densimetric scanning.
Background: A western blot detects proteins with antibodies after separation by electrophoresis.

Assay [2] has as its system MDA-MB-231 cells. Briefly: Apoptosis analysis (annexin V, flow cytometry). The settings on record: 48 h. A general note: A flow cytometer gives signals particle by particle.
Protocol: Briefly, cell apoptosis analysis was measured by annexin V FITC/PI assay using Annexin v-PE/7-AAD Apoptosis Detection kit (BD). […] After 48 h, the drug-treated cells were washed three times with PBS; the cell suspension was collected and centrifuged; and the supernatant was removed.
For assay [3], the system named is human lung epithelial cells (Beas-2B). Briefly: Antiproliferative activity against normal cells, Beas-2B. The note with it: read-out: Antiproliferative IC50 Beas-2B. Type of assay: cell-based. The source says: (§4) Two normal cell lines were selected: human lung epithelial cells (Beas-2B) and human liver epithelial cells (L-02).
The test system of assay [4] is MDA-MB-231 cells. Briefly: Colony formation assay. The note with it: MDA-MB-231, seven days, compared with SAHA.
Protocol: One week after the addition of the drugs, the medium was removed. The cells were then washed three times with PBS and fixed in methanol for 5 min. The cells were lastly stained with 1% crystal violet (Beyotime) for 15 min and washed with PBS. Images were collected using a scanning apparatus (Canon, Tokyo, Japan).
The next assay has as its system acetyl-histone H3. Briefly: Western blot analysis, acetyl-histone H3. Type of assay: cell-based, human. The settings on record: MDA-MB-231, 1, 2 and 5 µM, 48 h. The procedure:
as §1, §2, §3

Assay [5] has as its system human liver epithelial cells (L-02). Briefly: Antiproliferative activity against normal cells, L-02. Type of assay: cell-based. The settings on record: Epithelial cell, read-out: Antiproliferative IC50 L-02.
Excerpt: as §4

A further assay has as its system H157. Briefly: SRB antiproliferative assay, H157. The class given is cell-based. The settings on record: Homo sapiens, NCI-H157, 48 h, read-out: IC50 H157. As for the experimental part: Cancer cells (6 × 10^3 per well) were inoculated into 96-well plates. The treatment was carried out for 48 h, followed by SRB staining, and the absorption value was measured at 540 nm by a microplate reader. SAHA was used as a positive control, and the independent experiment was performed three times.
On the technique in general: In SRB staining, fixed cells bind dye roughly in proportion to their protein.

The subject of the next assay is A549. As to the kind of experiment: SRB antiproliferative assay, A549. Type of assay: cell-based. The note with it: Homo sapiens, A549, 48 h, read-out: IC50 A549. As for the experimental part:
(§5) Cancer cells (6 × 10^3 per well) were inoculated into 96-well plates. The treatment was carried out for 48 h, followed by SRB staining, and the absorption value was measured at 540 nm by a microplate reader.

For another assay, the system named is MDA-MB-231. As to the kind of experiment: SRB antiproliferative assay, MDA-MB-231. Type of assay: cell-based. The note with it: Homo sapiens, MDA-MB-231, 48 h, read-out: IC50 MDA-MB-231. The procedure: as §5
The subject of another assay is MCF-7. Briefly: SRB antiproliferative assay, MCF-7. The class given is cell-based. The note with it: Homo sapiens, MCF7, 48 h, read-out: IC50 MCF-7. As for the experimental part:
as §5

Another assay has as its system solid tumor cell lines. As to the kind of experiment: Antiproliferative activity, summary over tumor cell lines. The note with it: Homo sapiens, read-out: IC50 values against solid tumor cell lines (range). Type of assay: cell-based. As for the experimental part: as §5

This note sets out measurements from publication PMC7036849, “Development of Coumarin-Based Hydroxamates as Histone Deacetylase Inhibitors with Antitumor Activities” (Molecules, 2020).

Chain of HDAC1 (Q13547 whole entry): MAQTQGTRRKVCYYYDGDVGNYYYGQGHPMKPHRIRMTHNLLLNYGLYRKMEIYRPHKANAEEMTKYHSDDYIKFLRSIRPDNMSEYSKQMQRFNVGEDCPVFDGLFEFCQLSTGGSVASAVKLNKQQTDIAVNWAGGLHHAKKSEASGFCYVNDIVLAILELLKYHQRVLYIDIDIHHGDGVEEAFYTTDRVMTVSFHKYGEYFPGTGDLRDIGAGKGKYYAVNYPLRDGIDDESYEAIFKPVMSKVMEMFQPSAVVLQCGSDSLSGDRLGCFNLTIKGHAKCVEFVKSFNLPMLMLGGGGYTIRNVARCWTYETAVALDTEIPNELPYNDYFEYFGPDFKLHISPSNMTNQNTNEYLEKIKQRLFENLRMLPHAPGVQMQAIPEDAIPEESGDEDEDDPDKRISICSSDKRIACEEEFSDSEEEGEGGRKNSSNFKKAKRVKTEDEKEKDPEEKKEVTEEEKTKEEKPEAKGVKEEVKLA

Usually IC50 stands for the concentration that inhibits the measured activity by half. With `O=C(CCCCCCCOc1cc(=O)oc2cc(OCc3ccc([N+](=O)[O-])cc3)ccc12)NO` [Compound 14d, N-Hydroxy-8-((7-((4-nitrobenzyl)oxy)2-oxo-2H-chromen-4-yl)oxy)octanoic acid], the IC50 at HDAC1 came to 0.00172 µM.

As for `Cc1cccc(C)c1COc1ccc2c(OCCCCCCCC(=O)NO)cc(=O)oc2c1` [Compound 14s, N-Hydroxy-8-((7-((2,6-dimethylbenzyl)oxy)-2-oxo-2H-chromen-4-yl)oxy)octanoic acid], on HDAC1, the IC50 was found to be 0.00519 µM.

`O=C(CCCCCCCOc1cc(=O)oc2cc(OCc3ccc(Cl)cc3)ccc12)NO` [Compound 14j, N-Hydroxy-8-((7-((4-chlorobenzyl)oxy)-2-oxo-2H-chromen-4-yl)oxy)octanoic acid]: the IC50 on HDAC1 came to 0.00252 µM.

For `O=C(CCCCCCCOc1cc(=O)oc2cc(OCc3ccc(Br)cc3)ccc12)NO` [Compound 14k, N-Hydroxy-8-((7-((4-bromobenzyl)oxy)2-oxo-2H-chromen-4-yl)oxy)octanoic acid], on HDAC1, the IC50 was found to be 0.00302 µM.

Turning to `CCCOc1ccc2c(OCCCCCCCC(=O)NO)cc(=O)oc2c1` [Compound 13a, N-Hydroxy-8-((2-oxo-7-propoxy-2H-benzopyran-4-yl)oxy)octanoic acid], the cell cycle arrest entry in the assay with MDA-MB-231 cells [1] is listed as “arrested MDA-MB-231 cells in a dose-dependent manner”. For the same compound, the “acetylation level of histone H4” value with acetyl-histone H4 was “increased the acetylation levels of histone H3 and H4 in a clearly dose-dependent manner”. Also, the cell apoptosis in the assay with MDA-MB-231 cells [2] (MDA-MB-231, 1 µM) was 13.24%; with MDA-MB-231 cells [2] (MDA-MB-231, 2 µM), 18.01%. In addition, the IC50 was more than 50 µM in assay [3], more than 50 µM in assay [5] and 1.04 ± 0.08 µM in the assay on H157. Further, the “inhibition of colony formation” value in the assay on MDA-MB-231 cells [4] was “significant inhibition of the colony formation more potently than SAHA”. Moreover, the “acetylation level of histone H3” value in the assay with acetyl-histone H3 was “increased the acetylation levels of histone H3 and H4 in a clearly dose-dependent manner”.

For the compound `O=C(CCCCCCCOc1cc(=O)oc2cc(OCc3c(F)cccc3F)ccc12)NO` [Compound 14m, N-Hydroxy-8-((7-((2,6-difluorobenzyl)oxy)2-oxo-2H-chromen-4-yl)oxy)octanoic acid], the IC50 in the assay with A549 came out at 7.58 ± 2.05 µM; with MDA-MB-231 it was 1.95 ± 0.29 µM; with H157 it was 4.81 ± 0.8 µM; with MCF-7, 6.05 ± 1.33 µM.

For the compound `O=C(CCCCCCCOc1cc(=O)oc2cc(OCc3ccccc3[N+](=O)[O-])ccc12)NO` [Compound 14b, N-Hydroxy-8-((7-((2-nitrobenzyl)oxy)-2-oxo-2H-chromen-4-yl)oxy)octanoic acid], the IC50 on HDAC1 came out at 0.00159 µM.

For the compound `O=C(CCCCCCCOc1cc(=O)oc2cc(OCc3ccccc3Cl)ccc12)NO` [Compound 14h, N-Hydroxy-8-((7-((2-chlorobenzyl)oxy)-2-oxo-2H-chromen-4-yl)oxy)octanoic acid], the IC50 on HDAC1 came out at 0.0024 µM.

As for `COCCCOc1ccc2c(OCCCCCCCC(=O)NO)cc(=O)oc2c1` [Compound 13d, N-Hydroxy-8-((7-(3-methoxypropoxy)-2-oxo-2H-chromen-4-yl)oxy)octanoic acid], the IC50 with A549 is 4.11 ± 0.65 µM; in [3], more than 20 µM; in assay [5], more than 20 µM; with MDA-MB-231, 1.7 ± 0.39 µM; in the assay with H157, 2.36 ± 0.5 µM; in the assay on MCF-7, 5.23 ± 1.63 µM.

With `Cc1ccccc1COc1ccc2c(OCCCCCCCC(=O)NO)cc(=O)oc2c1` [Compound 14p, N-Hydroxy-8-((7-((2-methylbenzyl)oxy)-2-oxo-2H-chromen-4-yl)oxy)octanoic acid], the IC50 at HDAC1 was 0.00156 µM.

For `O=C(CCCCCCCOc1cc(=O)oc2cc(OCc3cccc([N+](=O)[O-])c3)ccc12)NO` [Compound 14c, N-Hydroxy-8-((7-((3-nitrobenzyl)oxy)-2-oxo-2H-chromen-4-yl)oxy)octanoic acid], at HDAC1, the IC50 came out at 0.00197 µM.

For `Cc1cccc(COc2ccc3c(OCCCCCCCC(=O)NO)cc(=O)oc3c2)c1` [Compound 14q, N-Hydroxy-8-((7-((3-methylbenzyl)oxy)-2-oxo-2H-chromen-4-yl)oxy)octanoic acid], on HDAC1, the IC50 worked out at 0.00295 µM.

In the case of `CCCCOc1ccc2c(OCCCCCCCC(=O)NO)cc(=O)oc2c1` [Compound 13b, N-Hydroxy-8-((7-butoxy-2-oxo-2H-benzopyran-4-yl)oxy)octanoic acid], the IC50 in the assay with A549 is 4.09 ± 1.54 µM; in [3], more than 50 µM; in [5], more than 20 µM; in the assay on MDA-MB-231, 1.97 ± 0.56 µM; in the assay with H157, 1.2 ± 0.17 µM; with MCF-7, 2.93 ± 0.49 µM.

Consider `Cc1ccc(COc2ccc3c(OCCCCCCCC(=O)NO)cc(=O)oc3c2)cc1` [Compound 14r, N-Hydroxy-8-((7-((4-methylbenzyl)oxy)2-oxo-2H-chromen-4-yl)oxy)octanoic acid], for which the IC50 at HDAC1 was found to be 0.0025 µM.

On to `O=C(CCCCCCCOc1cc(=O)oc2cc(OCC3CCCCC3)ccc12)NO` [Compound 13g], for which the IC50 on HDAC1 stood at 0.00501 µM.

On to `O=C(CCCCCCCOc1cc(=O)oc2cc(OCc3ccc(C(F)(F)F)cc3)ccc12)NO` [Compound 14l], for which the IC50 on HDAC1 was found to be 0.0055 µM.

With `COCCOc1ccc2c(OCCCCCCCC(=O)NO)cc(=O)oc2c1` [Compound 13c, N-Hydroxy-8-((7-(2-methoxyethoxy)-2-oxo-2H-chromen-4-yl)oxy)octanoic acid], in the assay on MDA-MB-231 cells [1], the cell cycle arrest entry is “arrested MDA-MB-231 cells in a dose-dependent manner”. The “acetylation level of histone H4” value in the assay with acetyl-histone H4 is “increased the acetylation levels of histone H3 and H4 in a clearly dose-dependent manner”. The cell apoptosis with MDA-MB-231 cells [2] (MDA-MB-231, 1 µM) is reported as 19.26%; in the assay with MDA-MB-231 cells [2] (MDA-MB-231, 2 µM), 25.14%. Further, the IC50 in the assay with solid tumor cell lines is 0.36 to 2.91 µM; in [3] it was more than 100 µM; in assay [5], more than 100 µM; with H157, 0.59 ± 0.03 µM. Further, the “inhibition of colony formation” value with MDA-MB-231 cells [4] was “significant inhibition of the colony formation more potently than SAHA”. Further, the “acetylation level of histone H3” value in the assay with acetyl-histone H3 is “increased the acetylation levels of histone H3 and H4 in a clearly dose-dependent manner”.

As for `O=C(CCCCCCC(=O)Nc1ccccc1)NO` [Compound 1, vorinostat, reference compound], the “cells in G2/M phase” value in the assay with MDA-MB-231 cells [1] (MDA-MB-231, 1 μM, 24 h) was 11.02%. In addition, the cell apoptosis was determined as 7.3% with MDA-MB-231 cells [2] (MDA-MB-231, 1 µM) and 12.6% in the assay with MDA-MB-231 cells [2] (MDA-MB-231, 2 µM). In addition, the IC50 with H157 was 1.66 ± 0.14 µM.

With `O=C(CCCCCCCOc1cc(=O)oc2cc(OCc3cccc(Cl)c3)ccc12)NO` [Compound 14i, N-Hydroxy-8-((7-((3-chlorobenzyl)oxy)-2-oxo-2H-chromen-4-yl)oxy)octanoic acid], the IC50 on HDAC1 was 0.00425 µM.

For the compound `O=C(CCCCCCCOc1cc(=O)oc2cc(OCc3ccc(F)cc3Cl)ccc12)NO` [Compound 14o, N-Hydroxy-8-((7-((2-chloro-4-fluorobenzyl)oxy)2-oxo-2H-chromen-4-yl)oxy)octanoic acid], at HDAC1, the IC50 amounted to 0.00322 µM.
